# Measurements published in paper PMC8086025, “A benzopyran with antiarrhythmic activity is an inhibitor of Kir3.1-containing potassium channels” (The Journal of Biological Chemistry, 2021).
# Values joined by “and” are separate entries in the source; they are usually repeats but may differ in a detail not shown here. Equal values may be shown once. “Also recorded” adds a separate entry of the source.
# Key:
# [1] = molecular target: Kir3.1(T143A)/4 (Homo sapiens, UniProt P48544+P48549, T143A); type: cell-based; details: 1 μM, TEVC
# [2] = molecular target: T1, Kir3.1/2 channel (UniProt P48542+P48549); assay: Whole-cell patch clamp, HEK293T cells, Kir3.1/2; type: cell-based, human Kir3.1, mouse Kir3.2; design: expressed in transfected cells; host or cells: HEK293T; details: whole-cell patch-clamp HEK-293 cells; read-out: IC50, inhibition of Kir3.1/2
# T1 sequence (P48549 1-501): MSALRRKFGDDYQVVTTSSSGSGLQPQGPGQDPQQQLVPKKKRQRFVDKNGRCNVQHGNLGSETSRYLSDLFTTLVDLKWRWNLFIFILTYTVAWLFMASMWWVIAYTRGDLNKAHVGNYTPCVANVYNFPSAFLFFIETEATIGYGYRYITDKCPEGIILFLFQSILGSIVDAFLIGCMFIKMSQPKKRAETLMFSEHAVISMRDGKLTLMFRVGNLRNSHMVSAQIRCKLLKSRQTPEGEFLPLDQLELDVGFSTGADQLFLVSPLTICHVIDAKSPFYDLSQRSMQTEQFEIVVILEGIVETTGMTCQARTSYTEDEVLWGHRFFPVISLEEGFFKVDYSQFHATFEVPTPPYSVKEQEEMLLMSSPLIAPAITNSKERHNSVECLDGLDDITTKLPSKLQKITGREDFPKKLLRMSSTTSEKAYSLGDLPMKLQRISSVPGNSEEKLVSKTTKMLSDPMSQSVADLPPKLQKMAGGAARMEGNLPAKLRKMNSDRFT
# T1 sequence (P48542 1-425): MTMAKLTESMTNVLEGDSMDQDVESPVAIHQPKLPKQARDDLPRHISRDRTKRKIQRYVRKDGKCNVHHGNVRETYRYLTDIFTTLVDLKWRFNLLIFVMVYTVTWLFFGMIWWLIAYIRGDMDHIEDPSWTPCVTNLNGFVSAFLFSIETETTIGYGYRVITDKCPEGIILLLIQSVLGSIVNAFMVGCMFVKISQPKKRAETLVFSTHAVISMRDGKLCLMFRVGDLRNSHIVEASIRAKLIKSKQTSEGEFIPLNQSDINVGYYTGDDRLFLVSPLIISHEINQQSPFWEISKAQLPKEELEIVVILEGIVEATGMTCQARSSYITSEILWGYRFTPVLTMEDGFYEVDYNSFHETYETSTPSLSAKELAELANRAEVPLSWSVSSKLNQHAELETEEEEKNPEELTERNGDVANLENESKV
# Experimental: For the experiments shown in Figure 1, G and H, whole-cell currents were recorded with an Axopatch 200B amplifier and pCLAMP software (Molecular Devices). HEK293T cells were transiently transfected with 1 μg Kir3.1 together with 1 μg Kir3.2 or 1 μg Kir3.4 DNA, using polyethylenimine (PEI). The cells were maintained in DMEM supplemented with 10% Fetal Bovine Serum and 1% Penicillin/Streptomycin at 37 °C in a 5% CO2 humidified atmosphere and were studied 24 to 48 h after transfection. HEK293T cells were bathed in Low K^+ (LK) solution (135 mM NaCl, 5 mM KCl, 1.2 mM MgCl2, 1.5 mM CaCl2, 8 mM Glucose, 10 mM HEPES with pH 7.4). High K^+ (HK) solution (5 mM NaCl, 135 mM KCl, 1.2 mM MgCl2, 1.5 mM CaCl2, 8 mM Glucose, 10 mM HEPES with pH 7.4) was perfused to establish basal currents. BP-G1 in HK solution was perfused sequentially in a concentration response manner prior to applying 5 mM BaCl2 in HK to identify remaining barium-insensitive leak currents and subtract them from the current records. […] Cells used in the experiments were selected based on eGFP fluorescence. A ramp protocol from −80 mV to +80 mV was used and currents were recorded at −80 mV in the whole-cell mode (using the Strathclyde Electrophysiology Software from the University of Strathclyde, Glasgow). The patch-clamp data were analyzed offline in pClamp (Molecular Devices) and OriginLab software. […]
# [3] = molecular target: T2, wild-type Kir3.4 channel (Homo sapiens, UniProt P48544); assay: TEVC in Xenopus oocytes, wild-type Kir3.4; type: cell-based; details: 1 μM
# T2 construct: expressed in transfected cells; host or cells: Xenopus laevis oocytes (cRNA injection)
# Experimental: X. laevis oocytes were isolated and microinjected as previously described ([6]). Human Kir3.1, mouse Kir3.2, and human Kir3.4 DNA constructs were used for electrophysiology experiments. All cRNA constructs were injected in the amount of 2 ng per oocyte. Injected oocytes were incubated for 2 to 3 days at 18 °C to allow for expression. Whole-cell oocyte currents were then measured using a GeneClamp 500 amplifier (Axon Instruments). Microelectrodes had resistances of 0.5 to 1 megohm using a 3M KCl solution in 1.4% agarose. Oocytes were perfused with a low K^+ (LK) solution ND96 (2 mM KCl, 96 mM NaCl, 1 mM MgCl2, 1.8 mM CaCl2, 5 mM HEPES-Na) to establish a baseline for the recordings. Basal current was measured in a high potassium (HK) solution ND96K (96 mM KCl, 10 mM HEPES-K, 1 mM MgCl2, 1.8 mM CaCl2). To block the current, the oocyte chamber was perfused with 4 mM BaCl2 in ND96K. Only the Barium-sensitive current was used for statistical analysis. To measure the inhibitory activity of the channels, 1 μM BP-G1 in ND96K (HK) was used. Typically, oocytes were held at 0 mV (EK) and the current was monitored constantly using a ramp protocol with a command potential from −80 to +80 mV. Current amplitude was measured at the end of a 1 s sweep. All currents were analyzed when they reached steady state. Error bars in the figures represent SD (N > 4).
# [4] = system: sigma (non-selective); assay: Radioligand binding, [3H]DTG, Jurkat cells (endogenous); details: listed as Benzopyran-G1
# T2 sequence (P48544 whole entry): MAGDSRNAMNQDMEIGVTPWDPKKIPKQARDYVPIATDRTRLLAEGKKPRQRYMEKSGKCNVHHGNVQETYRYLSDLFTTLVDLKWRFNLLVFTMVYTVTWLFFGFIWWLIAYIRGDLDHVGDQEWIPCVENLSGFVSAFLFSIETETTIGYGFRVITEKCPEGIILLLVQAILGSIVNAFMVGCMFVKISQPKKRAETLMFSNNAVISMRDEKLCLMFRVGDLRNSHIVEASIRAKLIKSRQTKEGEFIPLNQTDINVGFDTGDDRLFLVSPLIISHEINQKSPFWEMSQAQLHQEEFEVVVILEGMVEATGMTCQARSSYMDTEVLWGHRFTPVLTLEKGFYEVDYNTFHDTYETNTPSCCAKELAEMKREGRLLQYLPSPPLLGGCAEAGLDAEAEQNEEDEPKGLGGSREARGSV
# Sequence of Kir3.1(T143A)/4 (P48544 whole entry): as above
# Sequence of Kir3.1(T143A)/4 (P48549 whole entry T143A): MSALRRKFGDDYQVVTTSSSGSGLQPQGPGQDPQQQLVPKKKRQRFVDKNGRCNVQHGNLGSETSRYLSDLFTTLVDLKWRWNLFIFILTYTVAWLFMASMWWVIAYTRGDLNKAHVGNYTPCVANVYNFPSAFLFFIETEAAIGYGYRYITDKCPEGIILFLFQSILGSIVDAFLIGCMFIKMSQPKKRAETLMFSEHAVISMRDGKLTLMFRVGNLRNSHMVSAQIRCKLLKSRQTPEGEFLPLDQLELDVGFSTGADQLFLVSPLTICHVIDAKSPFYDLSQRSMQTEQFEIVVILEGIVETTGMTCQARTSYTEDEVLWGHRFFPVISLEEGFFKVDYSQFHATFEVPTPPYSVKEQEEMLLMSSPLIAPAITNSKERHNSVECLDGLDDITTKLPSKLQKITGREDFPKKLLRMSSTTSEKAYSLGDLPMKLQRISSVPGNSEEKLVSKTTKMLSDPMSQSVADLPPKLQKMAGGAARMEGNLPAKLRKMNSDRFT
smiles,measurement,setting,value
"Cc1cc(CO)nc2cc3c(cc12)OC(C)(C)[C@H](O)[C@H]3NCCc1ccccc1 [BP-G1, (3R,4S)-7-(hydroxymethyl)-2,2,9-trimethyl-4-(2-phenylethylamino)-3,4-dihydropyrano[2,3-g]quinolin-3-ol]",block of Kir3.1(T143A)/4,[1],no significant reduction in BP-G1 block
same,IC50,[2],0.01 to 0.03 µM and 0.0322 µM
same,inhibition of wild-type Kir3.4,[3],did not inhibit; also recorded: showed no block
same,% Specific Binding at 10 µM,[4],40.267% and < 50%
